Each molecule was assayed on phosphate uptake by rabbit intestinal Brush Border Membrane Vesicles (BBMV) (assay: 33PO4 Uptake in Rabbit Intestinal BBMV High Throughput Screening (HTS) assay). Settings: inhibition of 33PO4 uptake, 15 minutes.
Format: biochemical
Text: The activity of compounds of the present invention can be assessed using suitable assays, such as the ^33PO4 Uptake In Rabbit Intestinal BBMV High Throughput Screening (HTS) assay, as described in the Example 28. Compounds of the present invention can also be identified by virtue of their ability to inhibit the absorption of phosphate in vivo, for example, in the gastrointestinal tract of a laboratory animal.
The following example outlines the procedures required for in vitro measurement of the inhibition of phosphate uptake by rabbit intestinal Brush Border Membrane Vesicles (BBMV).
Rabbit Intestinal Brush Border Membrane Vesicles (BBMV) were isolated from mucosal scrapings of the upper small intestine (duodenum) of male New Zealand White rabbits. The scrapings were divided into 2 g aliquots in cryopreservation vials, frozen in liquid nitrogen, and stored at −80° C.
The following procedure was performed for each 2 g sample of BBMV mucosal scraping. Buffer volumes and container sizes were adjusted appropriately for the number of 2 g samples used. The entire preparation was performed on ice, unless otherwise stated.
Mucosal scrapings (2 g per tube) were thawed in a 37° C. water bath for 3 minutes and then placed on ice. The scrapings were suspended with a total of 7.5 mL of 300 MET, and transferred to a 250 mL Coming tube on ice. To the suspension was added 30 mL cold (4° C.) deionized water (dH2O). The suspension was homogenized with a tissue homogenizer (Polytron) on high speed for two minutes. A stir bar and MgCl2 (81.3 mg) were added. The suspension was mixed well by inverting the closed tube. The suspension was stirred on ice, ensuring that a good vortex is achieved with the stir bar, for 40 minutes. The suspension was transferred to a chilled centrifuge tube and spun at 4000×g for 15 minutes. The supernatant was transferred to a new chilled centrifuge tube and spun at 32000×g for 30 minutes. The supernatant was discarded and the pellet was re-suspended with 34 mL cold 60 MET. The suspension was homogenized with a Dounce homogenizer with 8 strokes. The suspension was transferred to a fresh 250 mL Coming tube. A stir bar and 69.1 mg MgCl2 were added. The suspension was stirred well on ice for 10 minutes. The suspension was transferred to a chilled centrifuge tube and spun at 4000×g for 15 minutes. The supernatant was transferred to a new chilled centrifuge tube and spun at 32000×g for 30 minutes. The supernatant was discarded. At this stage, the preparation could be continued or this pellet (P4) could be frozen in liquid nitrogen and stored at −80° C. When needed, this pellet could be allowed to thaw at room temperature for 5 minutes. Continuing the preparation, the pellet was re-suspended with 34 mL cold 280 MH. The suspension was homogenized in a Dounce homogenize with 8 strokes. The suspension was transferred to a new chilled centrifuge tube and spun at 32000×g for 30 minutes. The supernatant was discarded. To the pellet was added 500 μL 280 MH and the pellet was re-suspended very carefully with a 1 mL tuberculin syringe with a 25-gauge needle with care not to create bubbles. Once the entire pellet was suspended, the suspension was transferred to a chilled 1.5 mL microfuge tube. The suspension was evenly dispersed by bringing the suspension up into the syringe through the 25-gauge needle, and back out again eight times with care not to create bubbles. The total protein concentration was determined by performing a Bradford Protein Assay. Using that value, the BBMV were diluted with 280 MH to reach approximately 0.5-2.0 mg/mL. The solution was used as soon as possible for uptake studies.
^33PO4 Uptake in Rabbit Intestinal BBMV
The following experiment was performed using a Beckman Multimek 96-tip robotic pipettor. The following outlines the preparation required to screen one 96-well plate of compounds. However, multiple plates could be screened in one experiment. […]

Row | SMILES | IC50 [µM]
1 | CCCCCCCCCCP(=O)(O)CP(=O)(O)O [Compound 1] | < 100
2 | C=CCCCCCCCCCP(=O)(O)C(F)(F)P(=O)(O)O [Compound 2] | < 100
3 | C=CCCCCCCCCCP(=O)(O)C(F)P(=O)(O)O (centres unmarked) [Compound 3] | < 100
4 | C=CCCCCCCCCCP(=O)(O)CP(=O)(O)O [Compound 4] | < 100
5 | O=P(O)(O)CP(=O)(O)c1ccc(C(F)(F)F)cc1 [Compound 5] | < 100
6 | O=P(O)(O)CP(=O)(O)CCCCCCCCCC(Br)CBr (centres unmarked) [Compound 6] | < 100
7 | O=C1c2ccccc2C(=O)N1CCCCCCCCCCCP(=O)(O)CP(=O)(O)O [Compound 8] | < 100
8 | O=C(NCCCCCCCCCCCP(=O)(O)CP(=O)(O)O)c1ccc(OC(F)(F)F)cc1 [Compound 10] | 100 to 300
9 | C=CCCC(CCCCCCCCCC)P(=O)(O)CP(=O)(O)O (centres unmarked) [Compound 11] | 100 to 300
10 | O=P(O)(O)CP(=O)(O)CCCCCCCCCCCNS(=O)(=O)c1ccc(OC(F)(F)F)cc1 [Compound 14] | 100 to 300
11 | C=CCCCCCCCCCP(=O)(O)CP(=O)(O)CP(=O)(O)O [Compound 16] | 100 to 300
12 | C=CCCCP(=O)(O)C(CCCCCCCCCC)P(=O)(O)O (centres unmarked) [Compound 17] | 300 to 700
13 | CCCCCCCCCC(CCCCCN)P(=O)(O)CP(=O)(O)O (centres unmarked) [Compound 18] | 300 to 700
14 | O=P(O)(O)CP(=O)(O)CCCC1CCCCC1 [Compound 19] | 300 to 700
15 | C=CCCCCCCCCCP(=O)(O)C(CCCCC)P(=O)(O)O (centres unmarked) [Compound 21] | 700 to 1000
16 | O=P(O)(O)CP(=O)(O)CCCCCCCCCC1CO1 (centres unmarked) [Compound 22] | 700 to 1000
17 | C=CCCCCCCCCCP(=O)(O)C(CCCCC)P(=O)(O)O (centres unmarked) [Compound 23] | 700 to 1000
18 | CCC(=O)NCCCCCCCCCCCP(=O)(O)CP(=O)(O)O [Compound 24] | 700 to 1000
19 | O=P(O)(O)CP(=O)(O)CCCCCCCCCCCO [Compound 25] | 700 to 1000
20 | CCCCCCCCCCC(P(C)(=O)O)P(=O)(O)O (centres unmarked) [Compound 26] | 700 to 1000
21 | NCCCCCCCCCCCP(=O)(O)CP(=O)(O)O [Compound 27] | 1000 to 1600
22 | CCCCCCCCCC(CCCCCNC(=O)CC)P(=O)(O)CP(=O)(O)O (centres unmarked) [Compound 28] | 1000 to 1600
23 | O=P(O)(O)CP(=O)(O)CCCCCBr [Compound 29] | 1000 to 1600
24 | O=P(O)(O)CP(=O)(O)C/C=C/c1ccccc1 [Compound 30] | 1000 to 1600
25 | C=CCCCP(=O)(O)C(Cc1ccc(-c2ccccc2)cc1)P(=O)(O)O (centres unmarked) [Compound 32] | 1000 to 1600
26 | O=P(O)(O)CP(=O)(O)C1CCCCC1 [Compound 33] | > 1600
27 | C=CCCCP(=O)(O)CP(=O)(O)O [Compound 34] | > 1600
28 | C=CC(=O)NCCCCCCCCCCCP(=O)(O)CP(=O)(O)O [Compound 35] | > 1600
29 | C=CCCCP(=O)(O)C(CCCC1CCCCC1)P(=O)(O)O (centres unmarked) [Compound 36] | > 1600
